Assay results as given in US8563742B2, “Substituted aminothiazole derivatives, pharmaceutical compositions, and methods of use” (High Point Pharmaceuticals, LLC, priority 2008, dated 2013).
Where no end group is shown, it is not given here.

Columns and labels:
in vivo = conditions: male, Sprague Dawley, rat, po, 5 mg/kg
human MC-4R = molecular target: T1, human MC-4R (Homo sapiens, UniProt P32245); assay: Biological Assay: inhibition of AgRP functional interaction with MC-4R in presence of αMSH (cAMP production); format: cell-based; conditions: HEK293 cells expressing human MC-4R, AgRP83-132 and αMSH present; read-out: Average EC50 (nM) in Biological Assay
T1 construct: expressed in transfected cells
T1 sequence (P32245 whole entry): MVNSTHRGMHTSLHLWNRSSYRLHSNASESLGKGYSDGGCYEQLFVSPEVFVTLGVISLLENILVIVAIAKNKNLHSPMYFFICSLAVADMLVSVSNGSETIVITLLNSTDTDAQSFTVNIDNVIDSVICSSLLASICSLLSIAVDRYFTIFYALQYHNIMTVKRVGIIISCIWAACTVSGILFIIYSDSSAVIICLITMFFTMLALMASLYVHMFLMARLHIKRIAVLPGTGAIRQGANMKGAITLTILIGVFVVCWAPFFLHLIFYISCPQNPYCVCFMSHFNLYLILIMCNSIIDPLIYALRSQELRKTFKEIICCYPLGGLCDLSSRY
Outline: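 HEK293 cells stably expressing human MC-4R (20,000/well) in EBSS/HEPES pH 7.4 with 0.5 mM IBMX. Compounds preincubated 30 min at room temperature with human AgRP83-132, then cells added and stimulated with αMSH 30 min at 37 °C. Intracellular cAMP measured after lysis; inhibition of AgRP seen as increased cAMP.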

[1] = rat, in vivo, po, 5 mg/kg; for Plasma:Brain Ratio: male, Sprague Dawley, 2 h
[2] = test system: adult male Sprague Dawley rats; assay: Feeding Study (icv AgRP, food intake and body weight); format: in vivo, Rat
Experimental: 27 adult male Sprague Dawley rats (Charles River Laboratories) were implanted with right lateral cerebral ventricular cannulas and allowed to recover for one week. After one week, animals were then randomized into 4 groups that were matched for food intake and body weight: water gavage-icv saline (n=6); Example 7 gavage-icv saline (n=7); water gavage-icv AgRP (n=7); Example 7 gavage-icv AgRP (n=7). Water or Example 7 (30 mg/kg) was administered at by oral gavage followed by icv injection of either saline or 0.2 nmol human AgRP 83-132. AgRP stimulated food intake and body weight gain over the next 24 h compared to saline controls. Both of these effects of AgRP were blocked by injection administration of Example 7.
On day 2 a second dose of Example 7 (30 mg/kg) or water was administered by oral gavage. On day 3, water or Example 7 (30 mg/kg) was administered for the third and final time by oral gavage followed by icv injection of either saline or 0.2 nmol human AgRP83-132. Food intake and body weight were monitored daily and animals were sacrificed on day 5.

[3] = Pharmacokinetic screening in rats (plasma and brain); conditions: rat, 5 mg/kg PO
[4] = Stability in Liver Microsomes (mouse); format: in vitro ADME; conditions: 1 μM, 0.5 mg protein/mL, NADPH, 60 minutes, 37° C., pH 7.4
Experimental: (§1) Various compounds were tested for their stability in human, monkey, dog, rat, and mouse liver microsomes. At a final concentration of 1 μM, compounds were incubated with either human, monkey, dog, rat, or mouse liver microsomes (0.5 mg protein/mL) in the presence of an NADPH-solution for 60 minutes at 37° C., pH 7.4 in phosphate buffer. Incubations were performed in duplicate. Reactions were terminated by the addition of methanol. The incubation solution was vortexed and transferred into a 96-well plate. The plate was sealed and centrifuged at approximately 3500 rpm for approximately 10 minutes. After centrifugation, the plate was loaded into 96-well plate autosampler and analyzed by LC/MS. Values are reported as percent of compound remaining after 1 hour.

[5] = Stability in Liver Microsomes (monkey); format: in vitro ADME; conditions: 1 μM, 0.5 mg protein/mL, NADPH, 60 minutes, 37° C., pH 7.4
Experimental: as §1

[6] = Stability in Liver Microsomes (rat); format: in vitro ADME; conditions: 1 μM, 0.5 mg protein/mL, NADPH, 60 minutes, 37° C., pH 7.4
Experimental: as §1

[7] = Stability in Liver Microsomes (human); format: in vitro ADME; conditions: 1 μM, 0.5 mg protein/mL, NADPH, 60 minutes, 37° C., pH 7.4
Experimental: as §1

OVX rats = assay: Sexual Behavior, sub-chronic regimen in OVX rats; format: in vivo, Rat; conditions: 30 mg/kg/day PO, 5 days
Experimental: Rats were ovariectomized (OVX) under ketamine/xylazine anesthesia with 8 rats per group. OVX rats were then administered estradiol benzoate (10 micrograms) 48 hours and progesterone (500 micrograms) 4 hours before five baseline tests of sexual behavior with sexually vigorous stud males. Tests were 30 minutes in duration and were conducted at 4-day intervals. All females developed normal rates of appetitive and consummatory sexual behavior. Following this baseline test phase, females were switched to an estrogen-alone baseline phase, during which they were administered estradiol benzoate (10 micrograms) 48 hours before tests of sexual behavior with sexually vigorous males. These tests were conducted at 14-day intervals, to assure low rates of appetitive responding (e.g., solicitations, hops and darts). After the second test, females were assigned randomly to 4 groups, a saline control, two doses of Example 7 antagonist (10 and 30 mg/kg, PO), and a positive control using melanotan II (MT-II) (1 mg/kg, SC). The saline control and Example 7 were gavaged daily for 5 days prior to the test. The MT-II control was injected acutely 5 min prior to the test. The test was recorded on video and scored by a technician blind to which drug the animals were receiving. Behaviors were subjected to one-way ANOVAs. For each significant effect, posthoc tests were conducted on the means using the Tukey method, P<0.05.

[8] = Stability in Liver Microsomes (dog); format: in vitro ADME; conditions: 1 μM, 0.5 mg protein/mL, NADPH, 60 minutes, 37° C., pH 7.4
Experimental: as §1

[9] = 30 mg/kg oral gavage + icv saline compared to water + icv saline
[10] = 30 mg/kg oral gavage, icv 0.2 nmol human AgRP 83-132, 24 h
[11] = 0.2 nmol icv, water gavage, next 24 h

Row | concentration at 2 h (in vivo; Brain - 2 hours (ng/g)) | concentration at 2 h (in vivo; Plasma - 2 hours (ng/mL)) | EC50 (human MC-4R) | Plasma:Brain Ratio [1] | Stability in Liver Microsomes (% remaining after 1 hour incubation) Mouse [4] | Stability in Liver Microsomes (% remaining after 1 hour incubation) Monkey [5] | Stability in Liver Microsomes (% remaining after 1 hour incubation) Rat [6] | Stability in Liver Microsomes (% remaining after 1 hour incubation) Human [7] | Stability in Liver Microsomes (% remaining after 1 hour incubation) Dog [8] | Molecule | also measured
1 | 1460 ng/g | 3780 ng/mL | 241 nM | 2.6:1 |  |  |  |  |  | CCc1ccc(CN(CCC(=O)[O-])c2nc(C3CCC(C)CC3)cs2)s1.[Na+] (centres unmarked) [Example 5, Sodium; 3-{(5-ethyl-thiophen-2-ylmethyl)-[4-(4-methyl-cyclohexyl)-thiazol-2-yl]-amino}-propionate] | 
2 |  |  | 159 nM |  | 68% | 67% | 57% | 78% | 66% | Cc1ccc(CN(CCC(=O)[O-])c2nc([C@H]3CC[C@H](C(C)(C)C)CC3)cs2)s1.[Na+] [Example 7, Sodium; 3-[[4-(trans-4-tert-butyl-cyclohexyl)-thiazol-2-yl]-(5-methyl-thiophen-2-ylmethyl)-amino]-propionate] | effect on food intake, icv saline [2, 9]: no significant effect; effect on weight gain, icv saline [2, 9]: no significant effect; cumulative weight gain over the entire period, Example 7 + icv AgRP ([2]; 30 mg/kg oral gavage days 1, 2, 3, icv AgRP days 1 and 3, to day 5): less than 15 grams; effect on AgRP stimulated body weight gain [2, 10]: blocked; effect on AgRP stimulated food intake [2, 10]: blocked; concentration at 2 h ([3]; male, Sprague Dawley, plasma, po, 5 mg/kg, Plasma - 2 hours (ng/mL), 2 hour time point): 6460 ng/mL; Brain - 24 hours AUC (h * ng/g) ([3]; 24 hour study): ++++ (values above 20,000 h*ng/g); increase of mean frequency of high-intensity lordosis postures, factor relative to saline (OVX rats): 3.5; increase of mean number of solicitations, factor relative to saline (OVX rats): 6; increase of mean frequency of high-intensity lordosis postures, factor relative to MT-II (OVX rats; MT-II 1 mg/kg SC): 3.2; increase of mean number of solicitations, factor relative to MT-II (OVX rats; MT-II 1 mg/kg SC): 2
3 | 1580 ng/g | 5160 ng/mL | 210 nM | 3.3:1 | 88% | 84% | 88% | 93% | 91% | CCc1ccc(CN(CCC(=O)[O-])c2nc([C@H]3CC[C@H](C(C)(C)C)CC3)cs2)s1.[Na+] [Example 8, Sodium; 3-[[4-(trans-4-tert-butyl-cyclohexyl)-thiazol-2-yl]-(5-ethyl-thiophen-2-ylmethyl)-amino]-propionate] | 
4 |  |  | 274 nM |  | 69% | 74% | 66% | 82% | 92% | Cc1ccc(CN(CCC(=O)[O-])c2nc([C@H]3CC[C@H](C(C)C)CC3)cs2)s1.[Na+] [Example 9, Sodium; 3-[[4-(4-trans-isopropyl-cyclohexyl)-thiazol-2-yl]-(5-methyl-thiophen-2-ylmethyl)-amino]-propionate] | Plasma - 2 hours [1]: 3062 ng/mL
5 | 1910 ng/g | 7620 ng/mL | 275 nM | 4.0:1 |  |  |  |  |  | CCc1ccc(CN(CCC(=O)[O-])c2nc(C3CCC(c4ccccc4)CC3)cs2)s1.[Na+] (centres unmarked) [Example 39, Sodium; 3-{(5-ethyl-thiophen-2-ylmethyl)-[4-(4-phenyl-cyclohexyl)-thiazol-2-yl]-amino}-propionate] | 
6 | 536 ng/g | 1040 ng/mL | 76 nM | 1.9:1 |  |  |  |  |  | Cc1ccc(CN(CCC(=O)[O-])c2nc(C3(C)CCC(C)CC3)cs2)s1.[Na+] (centres unmarked) [Example 46, Sodium; 3-[[4-(1,4-dimethyl-cyclohexyl)-thiazol-2-yl]-(5-methyl-thiophen-2-ylmethyl)-amino]-propionate] | 
7 | 2110 ng/g | 3080 ng/mL |  | 1.5:1 | 99% | 64% | 91% | 82% | 95% | O=C([O-])CCN(Cc1cccs1)c1nc(-c2ccc(-c3ccccc3)cc2)cs1.[Na+] [Reference Compound B, Sodium 3-[(4-biphenyl-4-yl-thiazol-2-yl)-thiophen-2-ylmethylamino]-propionate, reference compound] | 
8 | 1240 ng/g | 2460 ng/mL |  | 2.0:1 |  |  |  |  |  | C[C@H]1CC[C@H](Oc2ccc(-c3csc(N(CCC(=O)[O-])Cc4cccs4)n3)cc2)CC1.[Na+] [Reference Compound C, Sodium 3-({4-[4-(trans-4-methyl-cyclohexyloxy)-phenyl]-thiazol-2-yl}-thiophen-2-ylmethyl-amino)-propionate, reference compound] | 
9 |  |  |  |  |  |  |  |  |  | AgRP: AgRP83-132 (human, Phoenix Pharma, cat no. 003-53), Agouti related protein fragment given icv (SSRRCVRLHESCLGQQVPCCDPCATCYCRFFNAFCYCRKLGTAMNPCSRT; ends and bridges not checked; cysteine pairing not given here; UniProt O00253 83-132, looked up, fragment) [reference compound] | cumulative weight gain over the entire period, icv AGRP + H2O ([2]; 0.2 nmol icv days 1 and 3, water gavage, to day 5): above 30 grams; body weight gain after icv AgRP compared to saline controls [2, 11]: stimulated; food intake after icv AgRP compared to saline controls [2, 11]: stimulated
